Assay results from ChEMBL document CHEMBL1136697, “3D-QSAR studies on thieno[3,2-d]pyrimidines as phosphodiesterase IV inhibitors” (Bioorg Med Chem Lett, 2003).

Molecular target: Phosphodiesterase 4 (Cavia porcellus)
Test: Inhibitory activity against (PDE IV) phosphodiesterase IV in guinea pig articular tissue

Row | IC50 [µM] | Structure (SMILES)
1 | 1.1 | CCCCc1nc(NCc2ccccc2)c2occc2n1
2 | 65 | c1ccc(CNc2nc(CN3CCCCC3)nc3ccsc23)cc1
3 | 4.7 | c1ccc(CNc2nc(CCCCOc3ccccc3)nc3ccsc23)cc1
